From the NIST ThermoML archive (doi:10.1021/je200811n)

Conditions: Hot wire method

F/C=C/C(F)(F)F [trans-1,3,3,3-tetrafluoropropene]
Conditions | thermal conductivity [W/m/K]
262.32 K, 98 kPa, Gas | 0.01085
262.32 K, 15456 kPa, Liquid | 0.09473
262.36 K, 10416 kPa, Liquid | 0.09243
262.42 K, 488 kPa, Liquid | 0.08745
262.42 K, 5301 kPa, Liquid | 0.08997
262.42 K, 21223 kPa, Liquid | 0.09713
262.45 K, 15452 kPa, Liquid | 0.09456
262.49 K, 10417 kPa, Liquid | 0.09221
262.56 K, 488 kPa, Liquid | 0.08718
262.56 K, 5298 kPa, Liquid | 0.08972
262.61 K, 123 kPa, Gas | 0.01085
262.62 K, 107 kPa, Gas | 0.01086
262.63 K, 98 kPa, Gas | 0.01084
262.65 K, 80 kPa, Gas | 0.01085
262.67 K, 97 kPa, Gas | 0.01087
262.79 K, 21214 kPa, Liquid | 0.0972
262.84 K, 15455 kPa, Liquid | 0.09447
262.89 K, 10416 kPa, Liquid | 0.0922
262.96 K, 5304 kPa, Liquid | 0.0897
262.96 K, 21225 kPa, Liquid | 0.09681
262.98 K, 488 kPa, Liquid | 0.08717
262.99 K, 121 kPa, Gas | 0.0108
263 K, 15446 kPa, Liquid | 0.0942
263.01 K, 106 kPa, Gas | 0.01081
263.02 K, 97 kPa, Gas | 0.01085
263.04 K, 80 kPa, Gas | 0.01079
263.05 K, 98 kPa, Gas | 0.01086
263.06 K, 10416 kPa, Liquid | 0.09188
263.13 K, 5299 kPa, Liquid | 0.08937
263.16 K, 488 kPa, Liquid | 0.08692
263.36 K, 21219 kPa, Liquid | 0.09681
263.39 K, 119 kPa, Gas | 0.01089
263.4 K, 15447 kPa, Liquid | 0.0942
263.42 K, 104 kPa, Gas | 0.01088
263.43 K, 97 kPa, Gas | 0.01089
263.45 K, 80 kPa, Gas | 0.01089
263.45 K, 98 kPa, Gas | 0.01081
263.48 K, 10415 kPa, Liquid | 0.09186
263.55 K, 21219 kPa, Liquid | 0.09652
263.56 K, 5297 kPa, Liquid | 0.08933
263.59 K, 488 kPa, Liquid | 0.08681
263.6 K, 15455 kPa, Liquid | 0.09401
263.68 K, 10416 kPa, Liquid | 0.09153
263.77 K, 5291 kPa, Liquid | 0.08901
263.8 K, 488 kPa, Liquid | 0.08652
272.01 K, 173 kPa, Gas | 0.01193
272.22 K, 93 kPa, Gas | 0.01165
272.23 K, 118 kPa, Gas | 0.01168
272.23 K, 164 kPa, Gas | 0.01178
272.24 K, 170 kPa, Gas | 0.01181
272.27 K, 80 kPa, Gas | 0.01132
272.44 K, 180 kPa, Gas | 0.01146
272.47 K, 93 kPa, Gas | 0.01156
272.47 K, 117 kPa, Gas | 0.01157
272.47 K, 162 kPa, Gas | 0.01169
272.51 K, 78 kPa, Gas | 0.01132
272.73 K, 92 kPa, Gas | 0.01149
272.73 K, 159 kPa, Gas | 0.01161
272.74 K, 116 kPa, Gas | 0.0115
272.74 K, 177 kPa, Gas | 0.01151
272.76 K, 76 kPa, Gas | 0.01132
272.99 K, 157 kPa, Gas | 0.01156
273 K, 90 kPa, Gas | 0.01144
273.01 K, 114 kPa, Gas | 0.01146
273.03 K, 74 kPa, Gas | 0.01133
273.1 K, 175 kPa, Gas | 0.01153
273.28 K, 154 kPa, Gas | 0.01152
273.29 K, 89 kPa, Gas | 0.01139
273.3 K, 112 kPa, Gas | 0.01142
273.31 K, 73 kPa, Gas | 0.01134
273.47 K, 172 kPa, Gas | 0.01157
273.48 K, 166 kPa, Gas | 0.0116
273.58 K, 119 kPa, Gas | 0.01167
273.62 K, 94 kPa, Gas | 0.01167
273.64 K, 84 kPa, Gas | 0.01168
273.88 K, 163 kPa, Gas | 0.0116
274 K, 118 kPa, Gas | 0.01166
274.07 K, 93 kPa, Gas | 0.01171
274.08 K, 78 kPa, Gas | 0.01173
274.32 K, 160 kPa, Gas | 0.01166
274.45 K, 116 kPa, Gas | 0.01173
274.52 K, 92 kPa, Gas | 0.01174
274.54 K, 77 kPa, Gas | 0.01173
274.78 K, 158 kPa, Gas | 0.01168
274.92 K, 115 kPa, Gas | 0.01175
275.01 K, 91 kPa, Gas | 0.01175
275.03 K, 75 kPa, Gas | 0.01176
275.27 K, 155 kPa, Gas | 0.01171
275.43 K, 113 kPa, Gas | 0.01179
275.53 K, 90 kPa, Gas | 0.0118
275.55 K, 73 kPa, Gas | 0.01186
281.19 K, 491 kPa, Liquid | 0.08061
281.19 K, 20251 kPa, Liquid | 0.09143
281.22 K, 15223 kPa, Liquid | 0.08878
281.25 K, 10286 kPa, Liquid | 0.08621
281.25 K, 23293 kPa, Liquid | 0.09262
281.26 K, 20239 kPa, Liquid | 0.09104
281.27 K, 458 kPa, Liquid | 0.08057
281.27 K, 5355 kPa, Liquid | 0.08361
281.29 K, 15230 kPa, Liquid | 0.0886
281.32 K, 10282 kPa, Liquid | 0.08605
281.34 K, 5380 kPa, Liquid | 0.08336
281.37 K, 102 kPa, Gas | 0.01233
281.37 K, 144 kPa, Gas | 0.01241
281.37 K, 199 kPa, Gas | 0.01253
281.37 K, 244 kPa, Gas | 0.01266
281.57 K, 23287 kPa, Liquid | 0.09254
281.59 K, 243 kPa, Gas | 0.01263
281.59 K, 20208 kPa, Liquid | 0.09091
281.6 K, 199 kPa, Gas | 0.01245
281.61 K, 101 kPa, Gas | 0.01221
281.61 K, 142 kPa, Gas | 0.0123

Liquid
Conditions | thermal conductivity [W/m/K]
263.15 K | 0.08688
273.15 K | 0.08321
